The values below come from ChEMBL document CHEMBL1146999, “Bradykinin antagonists modified with dipeptide mimetic beta-turn inducers” (Bioorg Med Chem Lett, 2006).

Assay [1] deals with T1, B2 bradykinin receptor (Homo sapiens, UniProt P30411).
T1 sequence (P30411 whole entry): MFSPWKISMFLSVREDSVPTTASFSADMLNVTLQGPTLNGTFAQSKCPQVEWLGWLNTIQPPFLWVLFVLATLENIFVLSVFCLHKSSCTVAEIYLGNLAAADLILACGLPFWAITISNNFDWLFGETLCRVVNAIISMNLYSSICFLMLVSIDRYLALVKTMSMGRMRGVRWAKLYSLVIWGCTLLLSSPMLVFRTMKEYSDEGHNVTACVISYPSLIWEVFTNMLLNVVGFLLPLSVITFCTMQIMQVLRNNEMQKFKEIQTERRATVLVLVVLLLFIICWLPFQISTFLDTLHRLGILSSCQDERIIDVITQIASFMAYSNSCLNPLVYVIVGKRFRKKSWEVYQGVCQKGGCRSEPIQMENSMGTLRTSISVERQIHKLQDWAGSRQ
The assay can be described thus: Binding affinity to human bradykinin B2 receptor transfected in CHO cells. In kind it is cell-based.

The target of assay [2] is T1, B2 bradykinin receptor. The assay can be described thus: Antagonist activity against bradykinin B2 receptor. Format: functional. As to conditions: read-out: pA2 (converted).

In general, Ki refers to the dissociation constant of the complex between target and ligand, obtained from inhibition or displacement. Lower therefore signals tighter binding. As for `NC(N)=NCCC[C@@H](N)C(=O)N[C@@H](CCCN=C(N)N)C(=O)N1CCC[C@H]1C(=O)N1CC(O)C[C@H]1C(=O)NCC(=O)N[C@@H](Cc1cccs1)C(=O)N[C@@H](CO)C(=O)N[C@]1(Cc2ccccc2)CCCC2N(C1=O)[C@H](C(=O)N[C@@H](CCCN=C(N)N)C(=O)O)CC21CCCC1` (some centres undefined), the Ki at B2 bradykinin receptor [1] was 3160 nM. The Kb at B2 bradykinin receptor [2] was more than 10000 nM.
Taken in the same sequence, the figures for `NC(N)=NCCC[C@@H](N)C(=O)N[C@@H](CCCN=C(N)N)C(=O)N1CCC[C@H]1C(=O)N1CC(O)C[C@H]1C(=O)NCC(=O)N[C@@H](Cc1cccs1)C(=O)N[C@@H](CO)C(=O)N[C@@]1(Cc2ccccc2)CCCC2N(C1=O)[C@H](C(=O)N[C@@H](CCCN=C(N)N)C(=O)O)CC21CCCC1` (some centres undefined) were 100 nM and 2510 nM.
